Source: patent US20240168030A1, “DIRECT FLUORESCENT GLYCAN LABELING” (BIO-TECHNE CORPORATION, priority 2019, published 2024)

T1: ST3Gal1 (Homo sapiens, UniProt Q11201)
T1 construct: purchased R&D Systems (Bio-Techne, Minneapolis, MN)
T1 sequence (Q11201 1-340): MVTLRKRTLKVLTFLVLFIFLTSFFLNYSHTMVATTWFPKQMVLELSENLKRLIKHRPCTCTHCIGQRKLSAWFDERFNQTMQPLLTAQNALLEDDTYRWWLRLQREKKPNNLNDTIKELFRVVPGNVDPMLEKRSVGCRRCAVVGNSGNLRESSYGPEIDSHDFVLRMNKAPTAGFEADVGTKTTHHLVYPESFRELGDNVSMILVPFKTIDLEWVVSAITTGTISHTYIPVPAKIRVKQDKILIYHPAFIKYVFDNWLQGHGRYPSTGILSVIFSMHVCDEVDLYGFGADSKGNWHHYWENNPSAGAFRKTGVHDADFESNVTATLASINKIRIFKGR

T2: ST3Gal2 (Homo sapiens, UniProt Q16842)
T2 construct: purchased R&D Systems (Bio-Techne, Minneapolis, MN)
T2 sequence (Q16842 1-350): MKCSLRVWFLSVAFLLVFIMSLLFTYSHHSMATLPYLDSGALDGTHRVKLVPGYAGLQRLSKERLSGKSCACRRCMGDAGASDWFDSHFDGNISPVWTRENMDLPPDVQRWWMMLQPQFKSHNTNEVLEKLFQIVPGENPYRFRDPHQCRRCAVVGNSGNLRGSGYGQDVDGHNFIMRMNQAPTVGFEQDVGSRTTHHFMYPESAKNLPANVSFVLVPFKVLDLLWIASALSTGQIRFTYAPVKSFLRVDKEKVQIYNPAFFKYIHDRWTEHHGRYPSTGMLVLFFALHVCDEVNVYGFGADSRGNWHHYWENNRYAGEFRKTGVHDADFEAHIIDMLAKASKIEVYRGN

T3: ST3Gal4 (Homo sapiens, UniProt Q11206)
T3 construct: purchased R&D Systems (Bio-Techne, Minneapolis, MN)
T3 sequence (Q11206 1-333): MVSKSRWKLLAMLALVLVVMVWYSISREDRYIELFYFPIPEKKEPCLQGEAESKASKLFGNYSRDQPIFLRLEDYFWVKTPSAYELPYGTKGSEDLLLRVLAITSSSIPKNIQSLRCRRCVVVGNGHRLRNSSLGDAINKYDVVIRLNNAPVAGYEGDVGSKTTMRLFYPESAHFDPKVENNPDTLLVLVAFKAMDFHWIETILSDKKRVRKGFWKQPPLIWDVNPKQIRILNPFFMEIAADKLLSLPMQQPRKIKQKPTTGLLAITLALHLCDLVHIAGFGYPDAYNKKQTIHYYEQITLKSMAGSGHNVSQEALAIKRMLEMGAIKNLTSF

T4: ST6Gal1 (Homo sapiens, UniProt P15907)
T4 construct: purchased R&D Systems (Bio-Techne, Minneapolis, MN)
T4 sequence (P15907 1-406): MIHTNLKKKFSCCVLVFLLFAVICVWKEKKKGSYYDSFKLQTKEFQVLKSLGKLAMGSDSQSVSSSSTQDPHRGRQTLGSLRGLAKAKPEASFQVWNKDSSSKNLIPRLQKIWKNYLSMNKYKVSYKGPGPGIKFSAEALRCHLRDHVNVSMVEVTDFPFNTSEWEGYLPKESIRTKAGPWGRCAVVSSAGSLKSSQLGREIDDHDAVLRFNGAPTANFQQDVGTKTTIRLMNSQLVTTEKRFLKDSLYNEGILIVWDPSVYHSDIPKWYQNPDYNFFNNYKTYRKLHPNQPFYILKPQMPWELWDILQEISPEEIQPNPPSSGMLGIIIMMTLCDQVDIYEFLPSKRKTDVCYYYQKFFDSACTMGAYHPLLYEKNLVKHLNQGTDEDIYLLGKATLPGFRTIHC

T5: ST6GalNAc1 (Homo sapiens, UniProt Q9NSC7)
T5 construct: purchased R&D Systems (Bio-Techne, Minneapolis, MN)
T5 sequence (Q9NSC7 1-600): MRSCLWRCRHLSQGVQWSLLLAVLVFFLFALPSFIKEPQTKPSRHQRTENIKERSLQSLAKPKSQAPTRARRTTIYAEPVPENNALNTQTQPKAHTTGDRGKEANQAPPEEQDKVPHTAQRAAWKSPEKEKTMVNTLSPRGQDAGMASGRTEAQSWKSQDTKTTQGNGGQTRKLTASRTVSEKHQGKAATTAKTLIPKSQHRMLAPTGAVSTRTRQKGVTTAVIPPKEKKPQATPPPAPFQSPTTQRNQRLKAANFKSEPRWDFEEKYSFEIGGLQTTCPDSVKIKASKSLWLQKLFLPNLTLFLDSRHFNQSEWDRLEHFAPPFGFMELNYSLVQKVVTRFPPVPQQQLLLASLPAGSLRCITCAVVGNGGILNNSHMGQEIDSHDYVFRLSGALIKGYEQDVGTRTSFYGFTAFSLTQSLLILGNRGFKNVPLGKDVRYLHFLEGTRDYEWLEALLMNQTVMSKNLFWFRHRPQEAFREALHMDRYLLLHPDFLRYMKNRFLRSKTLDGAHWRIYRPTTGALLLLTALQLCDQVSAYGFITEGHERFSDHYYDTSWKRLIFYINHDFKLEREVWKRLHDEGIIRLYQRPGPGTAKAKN

T6: ST6GalNAc2 (Homo sapiens, UniProt Q9UJ37)
T6 sequence (Q9UJ37 1-374): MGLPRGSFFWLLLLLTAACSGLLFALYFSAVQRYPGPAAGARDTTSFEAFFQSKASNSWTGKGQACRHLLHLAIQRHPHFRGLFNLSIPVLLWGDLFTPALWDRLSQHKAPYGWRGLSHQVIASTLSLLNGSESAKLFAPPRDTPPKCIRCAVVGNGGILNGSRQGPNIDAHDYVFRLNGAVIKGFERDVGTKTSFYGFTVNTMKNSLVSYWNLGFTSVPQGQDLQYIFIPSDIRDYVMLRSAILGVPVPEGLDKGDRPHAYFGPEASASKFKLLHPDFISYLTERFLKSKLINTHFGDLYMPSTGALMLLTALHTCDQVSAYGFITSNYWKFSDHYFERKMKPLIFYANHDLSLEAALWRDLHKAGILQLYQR

T7: ST6GalNAc4 (Homo sapiens, UniProt Q9H4F1)
T7 construct: purchased R&D Systems (Bio-Techne, Minneapolis, MN)
T7 sequence (Q9H4F1 1-302): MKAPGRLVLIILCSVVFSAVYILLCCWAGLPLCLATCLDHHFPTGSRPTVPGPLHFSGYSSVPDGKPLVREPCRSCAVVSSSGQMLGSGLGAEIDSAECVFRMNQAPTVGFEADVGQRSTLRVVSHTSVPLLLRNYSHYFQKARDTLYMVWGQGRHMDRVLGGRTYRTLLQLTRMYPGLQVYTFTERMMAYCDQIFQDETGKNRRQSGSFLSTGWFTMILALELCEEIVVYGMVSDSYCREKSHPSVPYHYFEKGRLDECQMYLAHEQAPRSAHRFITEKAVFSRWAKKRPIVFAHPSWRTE

B1: FUCA1: a lysosomal enzyme that hydrolyze α-fucose residues from glycans (protein, UniProt P04066 32-466, looked up)
Tissue alpha-L-fucosidase: QPPRRYTPDWPSLDSRPLPAWFDEAKFGVFIHWGVFSVPAWGSEWFWWHWQGEGRPQYQRFMRDNYPPGFSYADFGPQFTARFFHPEEWADLFQAAGAKYVVLTTKHHEGFTNWPSPVSWNWNSKDVGPHRDLVGELGTALRKRNIRYGLYHSLLEWFHPLYLLDKKNGFKTQHFVSAKTMPELYDLVNSYKPDLIWSDGEWECPDTYWNSTNFLSWLYNDSPVKDEVVVNDRWGQNCSCHHGGYYNCEDKFKPQSLPDHKWEMCTSIDKFSWGYRRDMALSDVTEESEIISELVQTVSLGGNYLLNIGPTKDGLIVPIFQERLLAVGKWLSINGEAIYASKPWRVQWEKNTTSVWYTSKGSAVYAIFLHWPENGVLNLESPITTSTTKITMLGIQGDLKWSTDPDKGLFISLPQLPPSAVPAEFAWTIKLTGVK

Key:
ST3Gal1 = target: T1, ST3Gal1; assay: Direct fluorescent glycan labeling (DFGL) with fluorophore-conjugated sialic acid by ST3Gal1; type: biochemical; set-up: key to Relative tolerance of the fluorophore by ST3Gal1: +++: indicated by + and − signs only; ++: indicated by + and − signs only; indicated by + and − signs only; indicated by + and − signs only; conditions: fluorophore-conjugated sialic acid donor; acceptor Gal of Core-1 O-glycan; fluorescence intensity of labeled fetuin or asialofetuin in FIG. 2
ST3Gal2 = target: T2, ST3Gal2; assay: DFGL with fluorophore-conjugated sialic acid by ST3Gal2; type: biochemical; set-up: key: +++: indicated by + and − signs only; ++: indicated by + and − signs only; indicated by + and − signs only; indicated by + and − signs only; conditions: fluorophore-conjugated sialic acid donor; acceptor Gal of Core-1 O-glycan; fluorescence intensity of labeled fetuin or asialofetuin in FIG. 2
ST3Gal4 = target: T3, ST3Gal4; assay: DFGL with fluorophore-conjugated sialic acid by ST3Gal4; type: biochemical; set-up: key: +++: indicated by + and − signs only; ++: indicated by + and − signs only; indicated by + and − signs only; indicated by + and − signs only; conditions: fluorophore-conjugated sialic acid donor; acceptor Gal of N-glycan; fluorescence intensity of labeled fetuin or asialofetuin in FIG. 2
ST6Gal1 = target: T4, ST6Gal1; assay: DFGL with fluorophore-conjugated sialic acid by ST6Gal1; type: biochemical; set-up: key to Relative tolerance of the fluorophore by ST6Gal1: +++: indicated by + and − signs only; ++: indicated by + and − signs only; indicated by + and − signs only; indicated by + and − signs only; conditions: fluorophore-conjugated sialic acid donor; acceptor Gal of N-glycan; fluorescence intensity of labeled fetuin or asialofetuin in FIG. 2
ST6GalNAc1 = target: T5, ST6GalNAc1; assay: DFGL with fluorophore-conjugated sialic acid by ST6GalNAc1; type: biochemical; set-up: key: +++: indicated by + and − signs only; ++: indicated by + and − signs only; indicated by + and − signs only; indicated by + and − signs only; conditions: fluorophore-conjugated sialic acid donor; acceptor O-GalNAc, sialylation on terminal Gal is flexible; FIG. 2
ST6GalNAc2 = target: T6, ST6GalNAc2; assay: DFGL with fluorophore-conjugated sialic acid by ST6GalNAc2; type: biochemical; set-up: key: +++: indicated by + and − signs only; ++: indicated by + and − signs only; indicated by + and − signs only; indicated by + and − signs only; conditions: fluorophore-conjugated sialic acid donor; acceptor O-GalNAc, sialylation on terminal Gal is flexible; FIG. 2
ST6GalNAc4 = target: T7, ST6GalNAc4; assay: DFGL with fluorophore-conjugated sialic acid by ST6GalNAc4; type: biochemical; set-up: key to Relative tolerance of the fluorophore by ST6GalNAc4: +++: indicated by + and − signs only; ++: indicated by + and − signs only; indicated by + and − signs only; indicated by + and − signs only; conditions: for Relative tolerance of the fluorophore by ST6GalNAc4: fluorophore-conjugated sialic acid donor, acceptor O-GalNAc, with sialylated terminal Gal, FIG. 2
fetuin and asialofetuin = assay: PNGase F and FUCA1 treatment of labeled fetuin and asialofetuin; type: biochemical, bovine; conditions: Cy5, FIG. 18B
Procedure: FIG. 18A-FIG. 18B show characterization of the labeled glycans on fetuin (Fet) and asialofetuin (AF) with PNGase F and FUCA1. FIG. 18A. PNGase F treatment of the labeled samples. […] Fet was labeled by FUT7 (F7) with Alexa Fluor® 488 (blue). Labeled samples were then treated with PNGase F to release the glycans. FIG. 18B. Effect of FUCA1 on the labeling. Samples without or with FUCA1 treatment were labeled by the indicated enzymes with Cy5. All samples were separated on 15% SDS-PAGE and imaged by silver staining, TCE staining and fluorescent imaging as indicated. M, Western blot molecular marker.
For a typical labeling reaction, 1 μg to 5 μg target protein was mixed with 0.2 nmol fluorophore-conjugated GDP-fucose and 0.2 μg of a fucosyltransferase in 30μL 25 mM Tris pH 7.5, 10 mM MnCl2. The mixture was incubated at 37° C. for 30 minutes. […] To release labeled glycans from a glycoprotein, the sample was first denatured by heating at 95° C. for two minutes in the presence of 0.5% SDS and 80 mM β-mercaptoethanol and then renatured with 1% Triton X-100, and finally treated with PNGase F at 10:1 mass ratio at 37° C. for 20 minutes. To release glycans from antibody, a sample was directly treated with Endo S at 10:1 mass ratio at 37° C. for 20 minutes. All samples were separated by sodium dodecyl sulfate—polyacrylamide gel electrophoresis (SDS-PAGE) at volts/cm. […]

Molecule	Relative tolerance of the fluorophore by ST3Gal1 (ST3Gal1)	Relative tolerance of the fluorophore by ST3Gal2 (ST3Gal2)	Relative tolerance of the fluorophore by ST3Gal4 (ST3Gal4)	Relative tolerance of the fluorophore by ST6Gal1 (ST6Gal1)	Relative tolerance of the fluorophore by ST6GalNAc1 (ST6GalNAc1)	Relative tolerance of the fluorophore by ST6GalNAc2 (ST6GalNAc2)	Relative tolerance of the fluorophore by ST6GalNAc4 (ST6GalNAc4)	Fluorophore preference of ST6GalNAc4 (ST6GalNAc4; Alexa Fluor® 555 over Cy5, FIG. 2)	Change of labeling on FUT7 labeled fetuin after the treatment (fetuin and asialofetuin)
cytidine monophosphate activated Alexa-Fluor®488-conjugated sialic acid [CMP-AF488-SA]	+	+++	+	+++	++	−	+		
cytidine monophosphate activated Alexa-Fluor® 555-conjugated sialic acid [CMP-AF555-SA]	++	+++	++	++	++	+	+++	strong preference	
B1									two-fold increase
